# Source: patent US5912245A, “Acid amide derivatives and process for the preparation thereof” (Egis Gyogyszergyar RT., priority 1994, dated 1999)
# Entries after “also recorded” stand apart in the source; their conditions may differ.
# Assays:
# AMPA = conditions: cited from earlier work
# [1] = target: NMDA (CGS 19755 receptor); test: Selectivity: CGS 19755 receptor binding test
# Procedure: The experiment was carried out according to the method of Foster et al. [A. Foster and E. H. F. Wong: Brit.
# AMPA and kainate = AMPA and kainate antagonism (overall conclusion from the binding and selectivity tests)
# Procedure: (§1) The experiment was carried out according to the method of Murphy et al. [D. E. Murphy, E. W. Snowhill, M. Williams: Neurochem. Res. 12, 775-782 (1987)] using a membrane specimen isolated from rat brain. The binding of kainate labeled with tritium on a rat cortex specimen was measured according to the method of Honore et al. [T. Honore, J. Dejer and M. Nielsen: Neurosci. Lett. 65, 48-52 (1986)].
# The experiment was carried out according to the method of Foster et al. [A. Foster and E. H. F. Wong: Brit. J. Pharmacol. 91, 403-409, (1987)]. When applying the CGS 19755 receptor binding test the method of Murphy et al. [D. E. Murphy, A. J. Hutchison, S. D. Hurt, M. Williams and M. A. Sills: Brit. J. Pharmacol. 95, 932-938 (1988)] was applied.
# kainate recognition site = test: ^3H-kainate binding (radioligand competitive binding assay); parameters: species or system rat; conditions: compared with DNQX
# Procedure: (§2) 1. ^3 H-AMPA and ^3 H-kainate binding (radioligand competitive binding assay)
# as §1
# AMPA recognition site = test: ^3H-AMPA binding (radioligand competitive binding assay); parameters: species or system rat; conditions: compared with DNQX
# Procedure: as §2, §1
SMILES,"AMPA antagonizing property, in words (AMPA)",Binding of ^3H-CGS-19755 Ki [1],"AMPA and kainate antagonism, in words (AMPA and kainate)","displacement of labeled kainate, in words (kainate recognition site)","displacement of labeled AMPA, in words (AMPA recognition site)"
"N#Cc1cc2[nH]c(=O)c(=O)[nH]c2cc1[N+](=O)[O-] [CNQX, 6-cyano-7-nitro-quinoxaline-2,3-dione]",selective AMPA antagonizing property,–,–,–,–
"O=c1[nH]c2cc([N+](=O)[O-])c([N+](=O)[O-])cc2[nH]c1=O [DNQX, 6,7-dinitroquinoxaline-2,3-dione, reference compound]",selective AMPA antagonizing property,"does not ""converge""",–,–,–
"O=c1[nH]c2cc([N+](=O)[O-])c(S(=O)(=O)NCCN3CCCCC3)cc2[nH]c1=O [Example 17, 1,2,3,4-Tetrahydro-7-nitro-2,3-dioxo-N-(2-piperidinoethyl)-6-quinoxaline sulfonamide]",–,"not ""converge""",selective AMPA and kainate antagonists,affinity similar to that of DNQX; also recorded: good reversible ligand,affinity similar to that of DNQX; also recorded: good reversible ligand
"O=c1[nH]c2cc([N+](=O)[O-])c(S(=O)(=O)N(CCO)CCO)cc2[nH]c1=O [Example 24, N,N-bis(2-Hydroxyethyl)-1,2,3,4-tetrahydro-7-nitro-2,3-dioxo-6-quinoxaline sulfonamide]",–,"does not ""converge""",selective AMPA and kainate antagonists,–,–
